According to PubChem BioAssay AID489027 (Sanford-Burnham Center for Chemical Genomics, 2010):
The source made the active and inactive calls. The rule behind the calls is not given here.

Molecular target: UPR counterscreen luciferase reporter, luminescence
Assay: luciferase reporter activation, UPR counterscreen line – cell-based, luminescence, counter-screen for adaptive UPR activator project, dose response (AID 489027)

Which EC50 does the source give for `Nc1nc(Nc2cccc(C(F)(F)F)c2)nc(C(F)(F)F)n1` here?
The EC50 was “inactive”.

How did the EC50 turn out when `O=C(Cn1c2ccc(F)cc2c2nc3n(c(=O)c21)CCS3)Nc1ccc(Cl)cc1F` was run?
Its EC50 is > 80 µM (inactive).

How did the EC50 turn out when `CCOc1ccc2nc(NC3=NC(c4ccc(OC)cc4)CC(=O)N3)nc(C)c2c1` (stereo unspecified) was run?
The EC50 was 11.8 µM.

Which EC50 does the source give for `CCOC(=S)SCC(=O)Nc1nc(-c2ccc(Br)cc2)cs1` here?
Its EC50 is 13 µM.

For `CCc1ccc2nc(N(CCCN(C)C)C(=O)c3ccc(S(=O)(=O)N4CCc5ccccc5C4)cc3)sc2c1`, which EC50 is on record?
Its EC50 is 12.7 µM.

For `O=C(Nc1ccc(SC(F)F)cc1)c1cc(-c2ccncc2)nc2ccccc12`, which EC50 is on record?
Its EC50 is > 80 µM (inactive).

With `CC1(C)C=Cc2c(c3c(c4c(=O)c(-c5ccc(O)cc5)coc24)OC(C)(C)CC3)O1` as the molecule, how does the EC50 read?
Its EC50 is 13.1 µM.

For `O=C(Nc1ccc(O)c2c(=O)cc(-c3cccc(Cl)c3)oc12)c1cccc(Cl)c1`, which EC50 is on record?
Its EC50 is “inactive”.

With `Cc1nc(NC(=O)CSc2ccc(-c3nc4ccccc4[nH]3)cn2)sc1C` as the molecule, how does the EC50 read?
Its EC50 is “inactive”.

With `O=C(O)c1ccc(N2C(=O)/C(=C/c3ccc(-c4ccc([N+](=O)[O-])cc4)o3)C=C2c2ccccc2)cc1` as the molecule, how does the EC50 read?
Its EC50 is > 80 µM (inactive).

How did the EC50 turn out when `C=C(C)[C@@]12OC3(c4ccccc4)O[C@@H]1C1[C@@H]4O[C@]4(CO)[C@@H](O)[C@]4(O)C(=O)C(C)=C[C@H]4[C@@]1(O3)[C@H](C)[C@H]2OC(=O)/C=C/C=C/c1ccccc1` (stereo partly specified) was run?
The EC50 was “inactive”.

How did the EC50 turn out when `O=C(COC(=O)/C=C/c1cn(-c2ccccc2)nc1-c1cccnc1)Nc1ccc(Cl)cc1Cl` was run?
Its EC50 is 14.3 µM.

`N#Cc1cc2c(nc1SCC(=O)Nc1sc3c(c1C#N)CCC3)CCCC2` was tested. Which EC50 did it give?
Its EC50 is “inactive”.

Which EC50 does the source give for `Cc1c(O)cc2c(c1O)C(=O)CC(c1ccccc1)O2` (stereo unspecified) here?
Its EC50 is 10.9 µM.

How did the EC50 turn out when `CCCCN(CC)S(=O)(=O)c1ccc(C(=O)N(CCCN(C)C)c2nc3cc(C)cc(C)c3s2)cc1` was run?
The EC50 was 11.4 µM.

For `COc1cccc2sc(N3CCN(c4nc5ccccc5s4)CC3)nc12`, which EC50 is on record?
The EC50 was 16.8 µM.

Which EC50 does the source give for `COc1cc([C@@H]2c3cc4c(cc3[C@@H](O)[C@H]3COC(=O)[C@H]23)OCO4)cc(OC)c1O[Si](C)(C)C(C)(C)C` here?
Its EC50 is 14.6 µM.

With `Clc1ccc(C2=Nn3c(nnc3-c3cc(-c4ccccc4)n[nH]3)SC2)cc1` as the molecule, how does the EC50 read?
The EC50 was 12.1 µM.

How did the EC50 turn out when `O=C(/C=C/c1cc([N+](=O)[O-])ccc1OC(F)F)Nc1cccc([N+](=O)[O-])c1` was run?
The EC50 was > 80 µM (inactive).

Which EC50 does the source give for `CC(C)c1cccc(-c2ccc3c(c2)S(=O)(=O)c2cccc(C(=O)NCc4ccccc4Cl)c2C3=O)c1` here?
The EC50 was 7.24 µM.

`O=c1[nH]c(-c2ccc(-c3cccc(Cl)c3)o2)nc2ccccc12` was tested. Which EC50 did it give?
The EC50 was 11.9 µM.

With `OCCNc1nc(Nc2ccc(Br)cc2)nc2ccccc12` as the molecule, how does the EC50 read?
The EC50 was 5.82 µM.

For `Cc1ccc(-n2c(O)c(/C=N/c3ncc(Br)cc3Br)c(=O)[nH]c2=O)cc1`, which EC50 is on record?
Its EC50 is “inactive”.

Which EC50 does the source give for `CCN(CC)c1ccc(-c2nn3c(-c4ccccc4OC)nnc3s2)cc1` here?
Its EC50 is “inactive”.

With `CCCNC(=O)c1c(N)n(-c2ccc3c(c2)OCO3)c2nc3ccccc3nc12` as the molecule, how does the EC50 read?
The EC50 was > 80 µM (inactive).

How did the EC50 turn out when `CN1C(=O)/C(=C/c2ccc(C(=O)NC3CCCC3)cc2)Oc2ccccc21` was run?
The EC50 was > 80 µM (inactive).

How did the EC50 turn out when `OCCCn1c(C2CCCN2c2nc(-c3ccc(F)cc3)cs2)nc2cc(Cl)c(N3CCCCC3)cc21` (stereo unspecified) was run?
The EC50 was > 80 µM (inactive).

How did the EC50 turn out when `O=[N+]([O-])c1ccc(N/N=C/c2cccc(O)c2O)c(S(=O)(=O)N2CCOCC2)c1` was run?
Its EC50 is 7.48 µM.

`CC1(C)CC(=O)C(C=Nc2ccc(C(=O)c3ccccc3)cc2N=CC2=C(O)CC(C)(C)CC2=O)=C(O)C1` was tested. Which EC50 did it give?
Its EC50 is 9.78 µM.

Which EC50 does the source give for `Cc1ccc2oc(C(Cl)(Cl)Cl)cc(=O)c2c1` here?
The EC50 was > 80 µM (inactive).

With `CN(C)CCCNC(=O)c1ccc(-c2nc(-c3ccc(Cl)cc3)cs2)cc1` as the molecule, how does the EC50 read?
The EC50 was 9.53 µM.

`COc1ccc(/C=C/c2nc3cc(-c4ccccc4)ccc3o2)cc1O` was tested. Which EC50 did it give?
Its EC50 is 14.6 µM.

For `COC(=O)c1cc([N+](=O)[O-])c(-n2ccnc2)c([N+](=O)[O-])c1`, which EC50 is on record?
Its EC50 is > 80 µM (inactive).

How did the EC50 turn out when `COc1ccc(-n2c(C)cc(C(=O)CCl)c2C)cc1` was run?
Its EC50 is 5.8 µM.

`CN1/C(=C\C(=O)COC(=O)c2ccc(O)c(O)c2)C(C)(C)c2ccccc21` was tested. Which EC50 did it give?
The EC50 was 6.61 µM.

Which EC50 does the source give for `COc1ccc(-c2sc3ccccc3c2-c2ccc(OCCN(C)C)cc2)cc1` here?
The EC50 was 13.3 µM.

Which EC50 does the source give for `NCCOc1ccc(C23CC4CC(CC(C4)C2)C3)cc1` here?
The EC50 was 8.74 µM.

Which EC50 does the source give for `COc1ccc(-c2csc3nc(-c4ccc(C)cc4)oc(=O)c23)cc1OC` here?
The EC50 was > 80 µM (inactive).

For `COc1cc(-c2noc(C)c2/C=C/c2ccc(OC(C)=O)cc2)cc(OC)c1OC`, which EC50 is on record?
The EC50 was > 80 µM (inactive).

How did the EC50 turn out when `O=C(Nc1ccc2nc3n(c(=O)c2c1)CCCCC3)c1ccccc1Cl` was run?
The EC50 was > 80 µM (inactive).

For `COc1ccc(S(=O)(=O)N2c3cc(Cl)ccc3Oc3nc4ccccc4nc32)cc1`, which EC50 is on record?
The EC50 was > 80 µM (inactive).

How did the EC50 turn out when `Cn1c2ccccc2c2cc(/C=N/NC(=O)c3cc(O)ccc3O)ccc21` was run?
Its EC50 is 4.02 µM.

For `CCN(CC)c1ccc(/C=C/[N+](=O)[O-])cc1`, which EC50 is on record?
The EC50 was 11.3 µM.

For `Cc1ccc(NC(=O)c2cc(S(=O)(=O)N(C)C)ccc2N2CCCC2)cc1S(=O)(=O)N(C)C`, which EC50 is on record?
The EC50 was 19 µM.

Which EC50 does the source give for `CN(C)S(=O)(=O)c1ccc(N2CCCC2)c(C(=O)Nc2nccs2)c1` here?
The EC50 was “inactive”.

How did the EC50 turn out when `CN(/N=C\c1ccc(O)c(O)c1)c1nc(-c2ccccc2)cc(-c2ccccc2)n1` was run?
Its EC50 is 7.52 µM.
